Data published in publication PMC4467156, “A new chemical inhibitor of angiogenesis and tumorigenesis that targets the VEGF signaling pathway upstream of Ras” (Oncotarget, 2015).

Key:
Water solubility = format: physicochemical
HMEC-GFP cells = experiment: Scratch wound closure assay, HMEC-GFP; format: cell-based, human; conditions: Homo sapiens; wound closure after 24 h, 10% FCS, tested 3.125 μM to 100 μM
Description: In order to adapt the endothelial scratch wounding assay to the constraints of high throughput screening, we decided to use an endothelial cell line rather than primary cultures for the sake of reproducibility. Since angiogenesis is triggered by capillary endothelial cells, we selected the HMEC-1 cell line which consists of human dermal microvascular endothelial cells stably expressing SV40 […] antigen. We infected this cell line with GFP-encoding retroviral particles and selected one clone (thereafter named HMEC-GFP) that presented a high level of fluorescence and a strong proliferation rate (doubling time in the presence of serum: 22 h). We controlled that GFP expression was stable over at least 50 passages and that these cells still expressed endothelial markers such as VE-cadherin and CD31. In a standard assay, HMEC-GFP cells were grown until confluence in 96-well plates in the presence of serum, scratched with the multi-tip dispenser of the HTS automat, gently rinsed twice to eliminate detached cells and cell debris that could liberate inflammatory and potentially angiogenic cytokines, and incubated for 24 h in the presence of serum and the compounds to be tested. Each well was photographed at time 0 h (after wounding) and 24 h under a motorized epifluorescence microscope and the digitized images were analyzed using Image J to determine the percentage of wound closure (Figure 1A, 1B). Under our standard conditions, the closure rate was 72 ± 4% in the positive controls and 27 ± 4.% in the negative controls.
(§1) Confluent cell monolayers were wounded with a plastic pipet tip, washed gently with phosphate buffer saline (PBS) and treated with complete media containing molecules, as indicated. Cells were placed at 37°C into the incubator and photographed at indicated times. Quantitation of closure of the monolayer was performed using the NIH Image J program (http://rsbweb.nih.gov/ij/). Results are expressed as percentage of wound closure at t = 24 h as compared to the initial wound at t = 0 h.

3T3-GFP cells = experiment: Scratch wound closure assay, 3T3-GFP; format: cell-based; conditions: wound closure after 24 h, 10% FCS, tested 3.125 μM to 100 μM
Description: Using this assay, we screened the academic library of the University of Grenoble, which is composed of 1360 original molecules. Setting the threshold of significant responses at 75% of the maximal inhibition, we identified 80 inhibitory molecules. At this stage, we reasoned that molecules that would affect the cytoskeleton dynamics or the adhesion properties of any cell type would be positive in this assay but would not represent good candidates for further development. We thus decided to perform a secondary counterscreen of the first 80 selected compounds on GFP-expressing 3T3 fibroblasts (3T3-GFP) using the same scratch assay. We then focused our interest on the 5 molecules that inhibited more strongly HMEC-GFP than 3T3-GFP wound healing. […] We synthesized a series of 30 analogs and tested them at various concentrations both on HMEC-GFP and 3T3-GFP cells. […] Dansyl and naphthalimide aromatic groups, found in COB223 and COB227 respectively, appeared very efficient. The presence of the diaminomethyl group on dansyl is critical for the activity of COB223 as shown by the lower efficiency of COB235 (IC50 is 8 times higher than that of COB223). COB223 and COB227 contain a tert-butyloxycarbonyl function (BOC group) as a second hydrophobic group. Replacement of BOC by an amino group decreased the efficiency and the specificity (compare 05-102-L-B09 vs 05-06-L-D03, or COB227 vs COB228).
as §1

HUVEC cells [1] = experiment: 3H-thymidine incorporation, HUVEC; format: cell-based, human; conditions: mitomycin C-treated cells vs untreated, data not shown
Protocol: Cells were treated with molecules in complete medium. After 22 h, 1 μCi per well H^3 thymidine was added for 2 hours. Cells are then fixed by 10% trichloroacetic acid and harvested with 0.2N NaOH, 1% SDS. Radioactivity was measured in a beta counter.

HUVEC cells [2] = experiment: Scratch assay on HUVEC with or without mitomycin C; format: cell-based, human; conditions: HUVEC pretreated 24 h with 2 μg/mL mitomycin C
Protocol: as §1, with “0 h. […]” for “0 h.”
www.impactjournals.com/oncotarget/ Oncotarget, Supplementary Materials 2015 […]
Figure S1: Effect of COB223 on endothelial cell migration. (A) Scratch assay: Confluent HUVEC cells were pretreated for 24 h without (CTL) or with 2 μg/mL of mitomycin C before a wound was made in the cell monolayer. After wounding, cells were incubated at 37°C in the absence or the presence of 25 μM COB223. Wound closure was measured after 24 h and 48 h of incubation as described in Material and Methods. […]
(B) Boyden chamber assay: The technique is described in Material and Methods. We measured the passage of fluorescently labeled HUVEC cells through a 3 μm-porous membrane in response to fetal calf serum used as a chemo-attractant. […] The Figure represents the mean fluorescence ± SD of duplicate determinations after 24 h or 48h of incubation from two independent experiments. […]

SMILES | water solubility (Water solubility) | IC50 (HMEC-GFP cells) | melting point | IC50 (3T3-GFP cells) | 3H-thymidine incorporation (HUVEC cells [1]) | wound healing (HUVEC cells [2])
CN(C)c1cccc2c(S(=O)(=O)NCCOCCOCCNS(=O)(=O)c3cccc4c(N(C)C)cccc34)cccc12 [COB295, 5-Dimethylamino-N-(2-[2-{2-(5-(dimethylamino)naphthalene-1-sulfonamido)ethoxy}ethoxy]ethyl)naphthalene-1-sulfonamide] | lack of water solubility | 5 µM |  |  |  | 
CN(C)c1cccc2c(S(=O)(=O)NCCCNS(=O)(=O)c3cccc4c(N(C)C)cccc34)cccc12 [Compound 05-06-F11, 1,3-bis [5-(Dimethylamino)naphthalene-1-sulfonamido] diaminopropane] | lack of water solubility | 15 µM | 90 °C | 40 µM |  | 
CO[C@@]12[C@H](COC(N)=O)C3=C(C(=O)C(C)=C(N)C3=O)N1C[C@@H]1N[C@@H]12 [mitomycin C, reference compound] |  |  |  |  | complete inhibition | slowed down
